Assay results taken from patent publication US6514540B1, “Therapeutic composition including plantain and aloe vera for treatment of arthritis and other afflictions” (priority 1999, dated 2003).

Tested on: arthritic symptoms
Experiment: Clinical trials: topical application for arthritis symptoms
Type: in vivo, human
Conditions: Subject No. 1, inflamed finger joint; injected locally and up to 80 mg orally over four to five months
Experimental: In addition, the entire finger and part of the hand was affected by the pain and the swelling resulting in restricted use of the hand.
The steroids were both injected locally and ingested in the form of up to 80 mg of prednazone, which was taken orally over a period of four to five months.
During this period, the frequency of the application of the cream or lotion and heat gradually diminished to three times per day without a need for augmentation of the treatment with heat.
Onset of these symptoms can result in a two- to three-fold increase in the size of a joint, with an inflammation of the surrounding tissue. This can occur in a matter of hours and affects the associated limb resulting in substantial pain, a loss of strength in the entire limb, sleep interruption (due to pain), and general malaise due to the intensity and continuous nature of the throbbing.

**Q.** For `C[C@]12C=CC(=O)C=C1CC[C@@H]1[C@@H]2C(=O)C[C@@]2(C)[C@H]1CC[C@]2(O)C(=O)CO` [prednazone], which “relief of pain and swelling by conventional steroid treatment” value is on record?
**A.** some initial success in relieving both the pain and swelling, but upon elimination of the drug, the symptoms returned
